Measurements: US20210355106A1, “NEW AMINO-PYRIMIDONYL-PIPERIDINYL DERIVATIVES, A PROCESS FOR THEIR PREPARATION AND PHARMACEUTICAL COMPOSITIONS CONTAINING THEM” (LES LABORATOIRES SERVIER, priority 2018, published 2021)

Experiments:
USP7 = biological target: T1, USP7 (Homo sapiens, UniProt Q93009, C315A); assay: Inhibition of USP7 by Fluorescence Intensity (FLINT) readings, Ubiquitin-Rhodamine-110 substrate; format: biochemical; conditions: 0.25 nM His-His-USP7 (aa208-560), 60 minutes at 30° C. preincubation; Ki determined from IC50 according to Cer et al.
T1 construct: 0.25 nM His-His-USP7 (aa208-560, |C315A|) was incubated with compound; His-His (N)
In short: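 His-tagged USP7 (aa208-560, C315A), 0.25 nM, preincubated with compound 60 min at 30 °C in 100 mM Bicine pH 8.0, 0.01% Triton X-100, 1 mM TCEP, 10% DMSO. Ubiquitin-Rhodamine-110 (50 nM or 4 μM) added; kinetic fluorescence (Ex 485/Em 535 nm) over 21 min; IC50 from 11-point curves, Ki derived from IC50.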

[1] = system: Z138 mantle cell lymphoma tumour cell lines; assay: In vitro cytotoxicity, MTT assay; format: cell-based; conditions: Homo sapiens, Z-138; Z138 cells, exposed to the test compounds for 96 hours
In short: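 Z138 cells exposed to compounds for 96 hours, then MTT added for 4 hours. Formazan absorbance at 540 nm serves as the measure of viable cell number.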

T1 sequence (Q93009 208-560 C315A): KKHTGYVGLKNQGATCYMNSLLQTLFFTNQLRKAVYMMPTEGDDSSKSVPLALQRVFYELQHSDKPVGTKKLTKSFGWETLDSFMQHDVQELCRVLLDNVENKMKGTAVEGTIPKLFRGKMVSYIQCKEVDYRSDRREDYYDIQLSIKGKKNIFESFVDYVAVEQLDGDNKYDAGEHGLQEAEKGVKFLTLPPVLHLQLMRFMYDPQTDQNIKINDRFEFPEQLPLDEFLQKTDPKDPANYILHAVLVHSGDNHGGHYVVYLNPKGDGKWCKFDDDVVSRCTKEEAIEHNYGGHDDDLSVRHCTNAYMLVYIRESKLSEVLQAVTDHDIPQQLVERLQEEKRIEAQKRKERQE

| Ki (USP7) | Structure (SMILES) | IC50 [1] |
| --- | --- | --- |
| 28.4 nM | Nc1c(Oc2ccc(F)cc2)ncn(CC2(O)CCN(C(=O)[C@@H]3CCN(S(=O)(=O)c4ccccc4)C[C@H]3c3ccccc3)CC2)c1=O [Example 30, 5-amino-3-({1-[(3R,4R)-1-(benzenesulfonyl)-3-phenyl-piperidine-4-carbonyl]A-hydroxy-4-piperidyl]methyl]-6-(4-fluorophenoxy)pyrimidin-4-one] | 9.1 nM |
| 2.2 nM | Cc1ccc(-c2nc(C)c(C(=O)N3CC[C@@H](C(=O)N4CCC(O)(Cn5cnc(Oc6ccc(F)cc6)c(N)c5=O)CC4)[C@H](c4ccccc4)C3)s2)cn1 [Example 47, 5-amino-6-(4-fluorophenoxy)-3-[(4-hydroxy-1-{(3R,4R)-1-[4-methyl-2-(6-methylpyridin-3-yl)-1,3-thiazole-5-carbonyl]-3-phenylpiperidine-4-carbonyl}piperidin-4-yl)methyl]pyrimidin-4(3H)-one] | 0.92 nM |
| 3.3 nM | Cc1ccc(-c2c(Cl)sc(C(=O)N3CC[C@@H](C(=O)N4CCC(O)(Cn5cnc(Oc6ccc(F)cc6)c(N)c5=O)CC4)[C@H](c4ccccc4)C3)c2F)cn1 [Example 107] | 7.64 nM |
| 1.52 nM | Nc1c(Oc2ccc(F)cc2)ncn(CC2(O)CCN(C(=O)[C@@H]3CCN(C(=O)c4cncc(Cl)c4)C[C@H]3c3ccccc3)CC2)c1=O [Example 133, 5-amino-3-[[1-[(3R,4R)-1-(5-chloropyridine-3-carbonyl)-3-phenyl-piperidine-4-carbonyl]-4-hydroxy-4-piperidyl]methyl]-6-(4-fluorophenoxy)pyrimidin-4-one] | 9.8 nM |
| 34.1 nM | Nc1c(Oc2ccc(F)cc2)ncn(C[C@@]2(O)CCN(C(=O)[C@@H]3CCN(Cc4ccncn4)C[C@H]3c3ccccc3)CC2(F)F)c1=O [Example 212, 5-amino-3-[[(4S)-3,3-difluoro-4-hydroxy-1-[(3R,4R)-3-phenyl-1-(pyrimidin-4-ylmethyl)piperidine-4-carbonyl]-4-piperidyl]methyl]-6-(4-fluorophenoxy)pyrimidin-4-one] | 21.4 nM |
| 81.2 nM | COc1cc(Cl)cc(Oc2ncn(C[C@@]3(O)CCN(C(=O)[C@@H]4CCN(Cc5ccnc(C)n5)C[C@H]4c4ccccc4)CC3(F)F)c(=O)c2N)c1 [Example 175, 5-amino-6-(3-chloro-5-methoxy-phenoxy)-3-[[(4S)-3,3-difluoro-4-hydroxy-1-[(3R,4R)-1-[(2-methylpyrimidin-4-yl)methyl]-3-phenyl-piperidine-4-carbonyl]-4-piperidyl]methyl]pyrimidin-4-one] | 26.5 nM |
| 7.9 nM | Cc1nc(Cc2ccccc2)sc1C(=O)N1CC[C@@H](C(=O)N2CCC(O)(Cn3cnc(Oc4ccc(F)cc4)c(N)c3=O)CC2)[C@H](c2ccccc2)C1 [Example 61, 5-amine-3-({1-[(3R,4R)-1-(2-benzyl-4-methyl-1,3-thiazole-5-carbonyl)-3-phenylpiperidine-4-carbonyl]-4-hydroxypiperidin-4-yl)methyl)-6-(4-fluorophenoxy)pyrimidin-4(3H)-one] | 17 nM |

Further lines, the compound ahead of its results:

| Structure (SMILES) | Ki (USP7) | IC50 [1] |
| --- | --- | --- |
| Nc1c(Oc2ccc(F)cc2)ncn(C[C@@]2(O)CCN(C(=O)[C@@H]3CCN(Cc4ccccc4F)C[C@H]3c3ccccc3)CC2(F)F)c1=O [Example 54, 5-amino-3-{[(4S)-3,3-difluoro-1-((3R,4R)-1-[(2-fluorophenyl)methyl]-3-phenylpiperidine-4-carbonyl}-4-hydroxypiperidin-4-yl}methyl)-6-(4-fluorophenoxy)pyrimidin-4(3H)-one] | 13 nM | 9.1 nM |
| Cc1nc(C2CC(F)(F)C2)sc1C(=O)N1CC[C@@H](C(=O)N2CCC(O)(Cn3cnc(Oc4ccc(F)cc4)c(N)c3=O)CC2)[C@H](c2ccccc2)C1 [Example 189] | 11.1 nM | 6.34 nM |
| Cc1ccc(-c2nc(C)c(C(=O)N3CC[C@@H](C(=O)N4CCC(O)(Cn5cnc(Oc6cccnc6)c(N)c5=O)CC4)[C@H](c4ccccc4)C3)s2)cn1 [Example 169] | 3.47 nM | 16.6 nM |
| Cc1nc(-c2ccc(C(F)(F)F)nc2)sc1C(=O)N1CC[C@@H](C(=O)N2CC[C@](O)(Cn3cnc(Oc4ccc(F)cc4)c(N)c3=O)C(F)(F)C2)[C@H](c2ccccc2)C1 [Example 103] | 6.4 nM | 6.63 nM |
| Cc1nc(-c2ccc(F)cc2)sc1C(=O)N1CC[C@@H](C(=O)N2CCC(O)(Cn3cnc(Oc4ccc(F)cc4)c(N)c3=O)CC2)[C@H](c2ccccc2)C1 [Example 48, 5-amino-6-(4-fluorophenoxy)-3-[(1-((3R,4R)-1-[2-(4-fluorophenyl)-4-methyl-1,3-thiazole-5-carbonyl]-3-phenylpiperidine-4-carbonyl}-4-hydroxypiperidin-4-yl)methyl]pyrimidin-4(3H)-one] | 5.2 nM | 3 nM |
| Cc1nccc(CN2CC[C@@H](C(=O)N3CC[C@](O)(Cn4cnc(Oc5ccc(Cl)c(F)c5)c(N)c4=O)C(F)(F)C3)[C@H](c3ccccc3)C2)n1 [Example 147] | 19 nM | 48.7 nM |
| Nc1c(Oc2ccc(F)cc2)ncn(CC2(O)CCN(C(=O)[C@@H]3CCN(C(=O)C(F)(F)c4ccccc4)C[C@H]3c3ccccc3)CC2)c1=O [Example 75, 5-amino-3-[[1-[(3R,4R)-1-(2,2-difluoro-2-phenyl-acetyl)-3-phenyl-piperidine-4-carbonyl]-4-hydroxy-4-piperidyl]methyl]-6-(4-fluorophenoxy)pyrimidin-4-one] | 39 nM | 43 nM |
| Cn1c(C(=O)N2CC[C@@H](C(=O)N3CCC(O)(Cn4cnc(Oc5ccc(F)cc5)c(N)c4=O)CC3)[C@H](c3ccccc3)C2)cnc1Br [Example 95, 5-amino-3-({1-[(3R,4R)-1-(2-bromo-1-methyl-11H-imidazole-5-carbonyl)-3-phenylpiperidine-4-carbonyl]-4-hydroxypiperidin-4-yl}methyl)-6-(4-fluorophenoxy)pyrimidin-4(3H)-one] | 21 nM | 27 nM |
| Nc1c(Oc2ccc(F)cc2)ncn(CC2(O)CCN(C(=O)[C@@H]3CCN(C(=O)c4cc(F)cc(F)c4)C[C@H]3c3ccccc3)CC2)c1=O [Example 129, 5-amino-3-[[1-[(3R,4R)-1-(3,5-difluorobenzoyl)-3-phenyl-piperidine-4-carbonyl]-4-hydroxy-4-piperidyl]methyl]-6-(4-fluorophenoxy)pyrimidin-4-one] | 2.87 nM | 5.2 nM |
| Nc1c(Oc2ccc(F)cc2)ncn(CC2(O)CCN(C(=O)[C@@H]3CCN(C(=O)c4sc(Cl)c(Br)c4F)C[C@H]3c3ccccc3)CC2)c1=O [Example 106, 5-amino-3-[[I-[(3R,4R)-1-(4-bromo-5-chloro-3-fluoro-thiophene-2-carbonyl)-3-phenyl-piperidine-4-carbonyl]-4-hydroxy-4-piperidyl]methyl]-6-(4-fluorophenoxy)pyrimidin-4-one] | 15 nM | 18.6 nM |
| Nc1c(Oc2ccc(F)cc2)ncn(CC2(O)CCN(C(=O)[C@@H]3CCN(C(=O)Nc4nc5ccccc5s4)C[C@H]3c3ccccc3)CC2)c1=O [Example 87, (3R,4R)-4-[4-[[5-amino-4-(4-fluorophenoxy)-6-oxo-pyrimidin-1-yl]methyl]-4-hydroxy-piperidine-1-carbonyl]-N-(1,3-benzothiazol-2-yl)-3-phenyl-piperidine-1-carboxamide] | 88 nM | 45 nM |
| Nc1c(Oc2ccc(F)cc2)ncn(C[C@@]2(O)CCN(C(=O)[C@@H]3CCN(Cc4ccnc(Cl)n4)C[C@H]3c3ccccc3)CC2(F)F)c1=O [Example 160] | 16.9 nM | 6.47 nM |
| COc1cc(Oc2ncn(C[C@@]3(O)CCN(C(=O)[C@@H]4CCN(Cc5cncc(C)n5)C[C@H]4c4ccccc4)CC3(F)F)c(=O)c2N)ccc1F [Example 218, 5-amino-3-[[(4S)-3,3-difluoro-4-hydroxy-1-[(3R,4R)-1-[(6-methylpyrazin-2-yl)methyl]-3-phenyl-piperidine-4-carbonyl]-4-piperidyl]methyl]-6-(4-fluoro-3-methoxy-phenoxy)pyrimidin-4-one] | 30.1 nM | 11.5 nM |
| Nc1c(Oc2ccc(F)cc2)ncn(CC2(O)CCN(C(=O)[C@@H]3CCN(C(=O)c4cncc(Br)c4)C[C@H]3c3ccccc3)CC2)c1=O [Example 33, 5-amino-3-({1-[(3R,4R)-1-(5-bromopyridine-3-carbonyl)-3-phenylpiperidine-4-carbonyl]-4-hydroxypiperidin-4-yl}methyl)-6-(4-fluorophenoxy)pyrimidin-4(3)-one] | 7.77 nM | 2.55 nM |
| Cc1ccc(-c2nccc(CN3CC[C@@H](C(=O)N4CC[C@](O)(Cn5cnc(Oc6ccc(F)cc6)c(N)c5=O)C(F)(F)C4)[C@H](c4ccccc4)C3)n2)cn1 [Example 176, 5-amino-3-[[(4S)-3,3-difluoro-4-hydroxy-1-((3R,4R)-1-{[2-(6-methyl-3-pyridyl)pyrimidin-4-yl]methyl]-3-phenyl-piperidine-4-carbonyl]-4-piperidyl]methyl]-6-(4-fluorophenoxy)pyrimidin-4-one] | 3.2 nM | 1.52 nM |
| COc1ccccc1C1(N2CC[C@@H](C(=O)N3CCC(O)(Cn4cnc(Oc5ccc(F)cc5)c(N)c4=O)CC3)[C@H](c3ccccc3)C2)COC1 [Example 139, 5-amino-6-(4-fluorophenoxy)-3-[[4-hydroxy-1-[(3R,4R)-1-[3-(2-methoxyphenyl)oxetan-3-yl]-3-phenyl-piperidine-4-carbonyl]-4-piperidyl]methyl]pyrimidin-4-one] | 19 nM | 24.6 nM |
